The record followed here is US20170027952A1, “ASSOCIATION BETWEEN 3-[(3--2-OXO-2,3-DIHYDRO-1H-INDOL-5-YL)METHYL]-1,3-THIAZOLIDINE-2,4-DIONE AND AN EGFR TYR KINASE INHIBITOR” (LES LABORATOIRES SERVIER, priority 2015, published 2017).

Molecules are shown by their SMILES. Where a name gives a salt, the structure may show the parent alone.

In assay [1] the test system is erlotinib-resistant cell line HCC827. Conditions: resistant line HCC827, compound on its own, 100 nM. The method, then: A cell viability test allowing the anti-proliferative ability of the anti-tumour compounds to be measured was used. The chosen cell line is line HCC827, a non-small cell lung cancer line that depends upon EGFR for its survival. […] The cells are seeded (150 μl) at the appropriate density in the wells of 96-well plates 2 days prior to the experiment. One column contains the untreated control cells representing 100% proliferation. The others are incubated with the test products for 4 doubling times.

Assay [2] concerns erlotinib-resistant HCC827 tumour. The experiment in a line: Inhibition of the growth of the erlotinib-resistant HCC827 tumour. Format: in vivo, female SCID mice. To be noted: d19, end of treatments, compounds on their own, oral daily for 19 days; erlotinib 12.5 mg/kg, compound A 50 mg/kg. The method, then: The tumours were allocated at random into groups of eight mice when the tumour volume had reached approximately 200 mm^3. […] The tumour volumes were measured two to three times each week using a sliding caliper. The median tumour volumes with the interquartile ranges are recorded on the graph.

Turning to `O=C1Nc2ccc(CN3C(=O)CSC3=O)cc2C1=Cc1cc(CN2CCOCC2)c[nH]1` [compound A, 3-[(3-{[4-(4-morpholinyl-methyl)-1H-pyrrol-2-yl]methylene}-2-oxo-2,3-dihydro-1H-indol-5-yl)methyl]-1,3-thiazolidine-2,4-dione hydrochloride], the “effect on the viability” value in assay [1] is “no effect on the viability”. Further, the “inhibition of the growth” value in assay [2] is 83%.
